Experimental data: patent US11083708B2, “Pharmacological restoration of epithelial or endothelial barrier integrity by agents blocking EPAC/RAP1 signaling” (The Regents of the University of California, priority 2018, dated 2021)
“Also recorded” adds a separate entry of the source.

Key:
ET-induced footpad edema = test: Mouse footpad edema assay: ET injected into the footpad after systemic drug pre-treatment; type: in vivo, BALB/cJ mice; conditions: for Inhibition of ET-induced footpad swelling (edema): i.p. pre-treatment 2-3 h before ET 0.15 pg/20 pl, ESI-09, AG1024, H89 10 mg/kg, SecinH3 250 ul of 2.5 mM, also 2 h post toxin, edema at 8-10 h or 18-24 h
Source text: To verify these conclusions in vivo, a footpad swelling assay was turned to in which intra-dermal injection of ET results in robust quantifiable edema. […] The question of which branch(es) of the cAMP pathway contributed to EF-mediated edema was examined by comparing the relative abilities of H89 and ESI-09 to block ET-induced footpad swelling. […] It was concluded that the Epac/Rap1 pathway is the primary mediator of EF-induced edema. In addition, the effect of AG1024 [47], an inhibitor of insulin-like growth factor receptor (IGF-1R), was tested. […] These findings, together with the results described above provide a framework for how effector pathways contribute to cAMP-mediated disruption of Rab11-dependent membrane trafficking (See FIG. 6 for summary diagram).
BALB/cJ mice (8-10 weeks old, female; Jackson Laboratories, Bar Harbor, Me.) were intraperitoneally injected with drugs. SecinH3 (TOCRIS #2849), AG1024 (Selleckchem, S1234), ESI-09 (TOCRIS #4773) or H89 (TOCRIS #2910), or with vehicle (70% DMSO in isotonic glucose for SecinH3, 30% DMSO in isotonic glucose for other drugs) 2-3 h prior to injection of ET (0.15 pg/20 pl, right footpad) or PBS (20 pl, left footpad), and in the case of SecinH3, also 2 h post toxin injection. ESI-09, AG1024 and H89 were administered at 10 mg/kg and SecinH3 was administered as 250 ul and 2.5 mM solution. Edema was assessed at 8-10 h, or 18-24 h by dorsal/plantar measurements using digital calipers.

HBMECs = test: ET (EF+PA) intoxication of HBMEC cultures with drug co-treatment; anti-pan-cadherin stain of adherens junctions, Sec15-GFP punctae; type: cell-based, human; conditions: EF and PA 0.2 pg/ml-0.4 pg/ml, co-treatment 24 hrs, Slit2 10 pg/ml, ESI-09 100 pM, H89 10 pM
Protocol: The relative contributions of the Arf6, Epac, and PKA pathways to EF-induced inhibition of Rab11 was next examined, making use of HBMEC cultures. […] To inhibit the Arf6 pathway, cells were treated with Slit2, a secreted peptide that activates the Robo4 receptor to promote vascular stability via stimulation of the ArfGAP GIT [27]. […] Next, to determine the relative contribution of each branch of the cAMP pathway, EF-intoxicated cells were co-treated with ESI-09, an inhibitor specific for Epac, or with H89, a well-characterized inhibitor of PKA[45]. […] It was concluded that Epac/Rap1 is the predominant pathway mediating the cAMP induced effects of ET on exocyst-dependent junctional traffic in this setting.
HBMEC cultures were maintained in DMEM (Corning; Manassas, Va.) containing 10% FBS, 1% Penicillin/streptomycin, 2 mM L-glutamine and were incubated in 37° C., 5% CO2 atmosphere. Cells were gently dislodged with 0.05% trypsin (Mediatech Inc.) and cultured on glass poly-D-lysine coated chamber slides (BD Falcon #354108). At about 80% confluence, EF and PA (0.2 pg/ml-0.4 pg/ml) were added to cells. […] After 24 hrs (FIGS. 5A-5H), cells were fixed for 10 mins at −20° C. in 100% Methanol, then washed with 0.1% Triton in PBS, Sec15GFP fluorescence was inspected directly, while Methanol-fixed cells were stained with a mouse anti pan-Cadherin antibody (Abcam, clone CH-19, 1/100). […]

Compound	ET-induced edema in animals in which systemic pre-treatment induced observable symptoms of malaise (ET-induced footpad edema; SecinH3-pretreated mice showing malaise)	Tolerability of systemic pre-treatment with the drug (ET-induced footpad edema; SecinH3 i.p., 250 ul of 2.5 mM solution, some animals)	Inhibition of ET-induced footpad swelling (edema) (ET-induced footpad edema)	Rescue of junctional pan-cadherin accumulation / adherens junctions (AJs) compromised by EF/ET (HBMECs)	Reversal of ET footpad swelling at both early (8 h) and late (18 h) times (ET-induced footpad edema; injected systemically in mice, 8 h and 18 h)
COc1nc(-c2ccc3c(c2)OCO3)n(-c2ccc(NC(=O)CSc3ccccc3)cc2)n1 [SecinH3]	virtually abolished	observable symptoms of malaise	strongly inhibited; also recorded: blocked EF-induced edema; also recorded: can be suppressed		
O=S(=O)(NCCNC/C=C/c1ccc(Br)cc1)c1cccc2cnccc12 [H89]			little or no effect	no detectable rescue; also recorded: does not appreciably rescue junctional cadherin expression	
CC(C)(C)c1cc(C(=O)/C(C#N)=N/Nc2cccc(Cl)c2)no1 [ESI-09]			absolute inhibition of edema; also recorded: strong inhibition of footpad swelling; also recorded: can be suppressed	partially restore normal junctional traffic and visible AJs; also recorded: partially rescues pan-cadherin expression at AJs; also recorded: partially restore junctional barrier integrity	can reverse the footpad swelling
CC(C)(C)c1cc(C=C(C#N)C#N)cc(Br)c1O [AG1024]			significant reduction of edema; also recorded: can be suppressed; also recorded: Strong, although less persistent, suppression of footpad swelling		
